Experimental findings from US12440484B2, “1,3,4-oxadiazole homophthalimide derivative compounds as histone deacetylase 6 inhibitor, and the pharmaceutical composition comprising the same” (Chong Kun Dang Pharmaceutical Corp., priority 2019, dated 2025) are described below.

In one experiment the target is HDAC6 human recombinant (Homo sapiens (Human), UniProt Q9UBN7). Nature of the experiment: HDAC enzyme activity inhibition (in vitro), HDAC6 assay. The following applies: samples at 0.1, 1, 10, 100 and 1000 nM; 37° C. 60 minutes; fluorescence Ex 390, Em 460. Type of experiment: biochemical.
Another experiment concerns the target HDAC1 (Homo sapiens (Human), UniProt Q13547). Nature of the experiment: HDAC enzyme activity inhibition (in vitro), HDAC1 Fluorimetric Drug Discovery Assay Kit. The format is biochemical. The settings on record: samples at 100, 1000 and 10000 nM; 37° C. 60 minutes; fluorescence Ex 390, Em 460.

Chain of HDAC1 (Q13547 whole entry): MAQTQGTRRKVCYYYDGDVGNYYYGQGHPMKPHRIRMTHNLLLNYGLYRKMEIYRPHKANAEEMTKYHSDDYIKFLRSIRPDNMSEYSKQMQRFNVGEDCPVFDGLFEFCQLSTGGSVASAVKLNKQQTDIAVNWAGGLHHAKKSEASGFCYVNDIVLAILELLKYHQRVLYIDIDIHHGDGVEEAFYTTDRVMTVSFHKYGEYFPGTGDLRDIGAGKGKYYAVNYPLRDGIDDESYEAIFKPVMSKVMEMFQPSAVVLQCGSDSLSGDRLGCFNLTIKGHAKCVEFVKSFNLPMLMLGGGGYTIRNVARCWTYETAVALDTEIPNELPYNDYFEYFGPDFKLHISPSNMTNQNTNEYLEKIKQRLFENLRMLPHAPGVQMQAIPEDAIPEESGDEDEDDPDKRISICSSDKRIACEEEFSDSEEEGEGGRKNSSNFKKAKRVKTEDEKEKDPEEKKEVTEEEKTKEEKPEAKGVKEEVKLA
Chain of HDAC6 human recombinant (Q9UBN7 whole entry): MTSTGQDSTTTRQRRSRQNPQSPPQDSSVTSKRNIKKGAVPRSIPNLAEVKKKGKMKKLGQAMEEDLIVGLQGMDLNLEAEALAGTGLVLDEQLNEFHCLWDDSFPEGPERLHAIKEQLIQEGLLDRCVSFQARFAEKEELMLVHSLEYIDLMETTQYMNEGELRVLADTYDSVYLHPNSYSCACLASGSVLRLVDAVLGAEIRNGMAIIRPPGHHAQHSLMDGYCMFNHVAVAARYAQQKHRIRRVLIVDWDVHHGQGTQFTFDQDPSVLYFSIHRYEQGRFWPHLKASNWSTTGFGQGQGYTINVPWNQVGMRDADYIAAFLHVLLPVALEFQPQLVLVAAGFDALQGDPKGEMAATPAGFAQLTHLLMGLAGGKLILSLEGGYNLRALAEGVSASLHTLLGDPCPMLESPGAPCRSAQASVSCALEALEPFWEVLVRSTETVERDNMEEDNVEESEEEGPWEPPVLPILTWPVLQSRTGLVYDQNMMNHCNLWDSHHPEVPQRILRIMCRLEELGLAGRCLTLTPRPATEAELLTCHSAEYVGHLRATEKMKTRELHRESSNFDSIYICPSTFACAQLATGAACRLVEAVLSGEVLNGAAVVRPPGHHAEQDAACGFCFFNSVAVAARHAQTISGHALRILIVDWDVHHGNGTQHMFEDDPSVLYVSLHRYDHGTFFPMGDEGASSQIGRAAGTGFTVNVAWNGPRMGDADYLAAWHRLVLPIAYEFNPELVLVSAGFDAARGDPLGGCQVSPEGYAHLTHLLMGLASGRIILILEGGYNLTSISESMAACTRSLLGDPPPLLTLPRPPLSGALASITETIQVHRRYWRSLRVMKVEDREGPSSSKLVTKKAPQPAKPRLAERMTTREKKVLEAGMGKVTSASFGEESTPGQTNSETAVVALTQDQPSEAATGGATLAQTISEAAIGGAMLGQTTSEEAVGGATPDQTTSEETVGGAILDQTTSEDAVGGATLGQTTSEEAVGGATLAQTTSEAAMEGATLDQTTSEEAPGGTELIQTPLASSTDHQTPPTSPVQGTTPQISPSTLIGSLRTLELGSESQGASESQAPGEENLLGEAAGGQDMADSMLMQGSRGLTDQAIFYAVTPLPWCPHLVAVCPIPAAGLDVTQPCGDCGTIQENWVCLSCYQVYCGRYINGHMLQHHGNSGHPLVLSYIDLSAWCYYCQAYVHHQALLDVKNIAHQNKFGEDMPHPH

In general, IC50 refers to the concentration that gives 50% inhibition. For `CC1(C)C(=O)N(Cc2ccc(-c3nnc(C(F)F)o3)cn2)C(=O)c2ccc(N3CCN(CC(=O)N4CCCC4)CC3)cc21` [Compound 33, 2-((5-(5-(difluoromethyl)-1,3,4-oxadiazole-2-yl)pyridine-2-yl)methyl)-4,4-dimethyl-6-(4-(2-oxo-2-(pyrrolidine-1-yl)ethyl)piperazine-1-yl)isoquinoline-1,3(2H,4H)-dione], the values for the IC50 on HDAC6 human recombinant and on HDAC1 were 0.034 µM and over 10 µM, respectively.

Regarding `CC(C)N1CCN(c2ccc3c(c2)C(=O)N(Cc2ccc(-c4nnc(C(F)F)o4)cn2)C(=O)C3(C)C)CC1` [Compound 119, 2-((5-(5-(difluoromethyl)-1,3,4-oxadiazole-2-yl)pyridine-2-yl)methyl)-7-(4-isopropylpiperazine-1-yl)-4,4-dimethylisoquinoline-1,3(2H,4H)-dione], the values for the IC50 at HDAC6 human recombinant and against HDAC1 were 0.021 µM and over 10 µM, respectively.

In the case of `O=C1c2ccccc2C(=O)N1Cc1ccc(-c2nnc(C(F)F)o2)cn1` [Compound 1, 2-((5-(5-(difluoromethyl)-1,3,4-oxadiazole-2-yl)pyridine-2-yl)methyl)isoindoline-1,3-dione], the IC50 at HDAC6 human recombinant was 0.057 µM; against HDAC1, over 10 µM.

As to `CC1(C)C(=O)N(Cc2ccc(-c3nnc(C(F)F)o3)cn2)C(=O)c2c(-c3cccnc3)cccc21` [Compound 85, 2-((5-(5-(difluoromethyl)-1,3,4-oxadiazole-2-yl)pyridine-2-yl)methyl)-4,4-dimethyl-8-(pyridine-3-yl)isoquinoline-1,3(2H,4H)-dione], the IC50 is 0.05 µM on HDAC6 human recombinant and over 10 µM against HDAC1.

`CC1(C)C(=O)N(Cc2ccc(-c3nnc(C(F)F)o3)cn2)C(=O)c2cc(-c3ccncc3)ccc21` [Compound 110, 2-((5-(5-(difluoromethyl)-1,3,4-oxadiazole-2-yl)pyridine-2-yl)methyl)-4,4-dimethyl-7-(pyridine-4-yl)isoquinoline-1,3(2H,4H)-dione]: the IC50 was 0.015 µM at HDAC6 human recombinant and over 10 µM against HDAC1.

As for `CC1(C)C(=O)N(Cc2ccc(-c3nnc(C(F)F)o3)cc2)C(=O)c2ccccc21` [Compound 6, 2-(4-(5-(difluoromethyl)-1,3,4-oxadiazole-2-yl)benzyl)-4,4-dimethylisoquinoline-1,3(2H,4H)-dione], the IC50 on HDAC6 human recombinant is 0.647 µM; against HDAC1 it was over 10 µM.

Regarding `CNC(=O)C1CCN(c2ccc3c(c2)C(C)(C)C(=O)N(Cc2ccc(-c4nnc(C(F)F)o4)cn2)C3=O)CC1` [Compound 56, 1-(2-((5-(5-(difluoromethyl)-1,3,4-oxadiazole-2-yl)pyridine-2-yl)methyl)-4,4-dimethyl-1,3-dioxo-1,2,3,4-tetrahydroisoquinoline-6-yl)-N-methylpiperidine-4-carboxamide], the IC50 on HDAC6 human recombinant was 0.046 µM; against HDAC1, over 10 µM.

Turning to `CCC(F)(F)CN1CCN(c2ccc3c(c2)C(C)(C)C(=O)N(Cc2ccc(-c4nnc(C(F)F)o4)cn2)C3=O)CC1` [Compound 139, 6-(4-(2,2-difluorobutyl)piperazine-1-yl)-2-((5-(5-(difluoromethyl)-1,3,4-oxadiazole-2-yl)pyridine-2-yl)methyl)-4,4-dimethylisoquinoline-1,3(2H,4H)-dione], the IC50 at HDAC6 human recombinant was 0.683 µM; against HDAC1, over 10 µM.

For `CCCN1CCN(c2ccc3c(c2)C(=O)N(Cc2ccc(-c4nnc(C(F)F)o4)cn2)C(=O)C3(C)C)CC1` [Compound 130, 2-((5-(5-(difluoromethyl)-1,3,4-oxadiazole-2-yl)pyridine-2-yl)methyl)-4,4-dimethyl-7-(4-propylpiperazine-1-yl) isoquinoline-1,3(2H,4H)-dione], the IC50 was 0.03 µM at HDAC6 human recombinant and over 10 µM against HDAC1.

Turning to `CC(=O)N1CCN(c2ccc3c(c2)C(C)(C)C(=O)N(Cc2ccc(-c4nnc(C(F)F)o4)cn2)C3=O)CC12CC2` [Compound 81, 6-(4-acetyl-4,7-diazaspiro[2.5]octane-7-yl)-2-((5-(5-(difluoromethyl)-1,3,4-oxadiazole-2-yl)pyridine-2-yl)methyl)-4,4-dimethylisoquinoline-1,3(2H,4H)-dione], the IC50 on HDAC6 human recombinant was 0.011 µM; at HDAC1 it was over 10 µM.

Take `Cn1c(=O)n(Cc2ccc(-c3nnc(C(F)F)o3)cn2)c(=O)c2cc(Br)ccc21` [Compound 86, 6-bromo-3-((5-(5-(difluoromethyl)-1,3,4-oxadiazole-2-yl)pyridine-2-yl)methyl)-1-methylquinazoline-2,4(1H,3H)-dione]: the IC50 at HDAC6 human recombinant was 0.04 µM; at HDAC1, over 10 µM.

With `CC1(C)C(=O)N(Cc2ccc(-c3nnc(C(F)F)o3)cn2)C(=O)c2cc(C3=CCS(=O)(=NC(=O)C(F)(F)F)CC3)ccc21` (stereo not drawn) [Compound 125, N-(4-(2-((5-(5-(difluoromethyl)-1,3,4-oxadiazole-2-yl)pyridine-2-yl)methyl)-4,4-dimethyl-1,3-dioxo-1,2,3,4-tetrahydroisoquinoline-7-yl)-1-oxydo-3,6-dihydro-2H-1λ^6-thiopyran-1-ylidene)-2,2,2-trifluoroacetamide], the IC50 on HDAC6 human recombinant was 0.043 µM; at HDAC1, over 10 µM.

For the compound `O=C1c2ccccc2C2(CCC2)C(=O)N1Cc1ccc(-c2nnc(C(F)F)o2)cc1` [Compound 5, 2′-(4-(5-(difluoromethyl)-1,3,4-oxadiazole-2-yl)benzyl)-1′H-spiro[cyclobutane-1,4′-isoquinoline]-1′,3′(2′H)-dione], the half-inhibitory concentration (IC50) is 0.513 µM on HDAC6 human recombinant and over 10 µM against HDAC1.

With `CC1(C)C(=O)N(Cc2ccc(-c3nnc(C(F)F)o3)cn2)C(=O)c2c(-c3ccoc3)cccc21` [Compound 95, 2-((5-(5-(difluoromethyl)-1,3,4-oxadiazole-2-yl)pyridine-2-yl)methyl)-8-(furan-3-yl)-4,4-dimethylisoquinoline-1,3(2H,4H)-dione], the IC50 on HDAC6 human recombinant is 0.059 µM; against HDAC1, over 10 µM.

On to `COCCn1c(=O)n(Cc2ccc(-c3nnc(C(F)F)o3)cn2)c(=O)c2ccccc21` [Compound 17, 3-((5-(5-(difluoromethyl)-1,3,4-oxadiazole-2-yl)pyridine-2-yl)methyl)-1-(2-methoxyethyl)quinazoline-2,4(1H,3H)-dione], for which the IC50 on HDAC6 human recombinant was 0.165 µM; against HDAC1, over 10 µM.

For the compound `CCCCN1CCN(c2ccc3c(c2)C(C)(C)C(=O)N(Cc2ccc(-c4nnc(C(F)F)o4)cn2)C3=O)CC1` [Compound 147, 6-(4-butylpiperazine-1-yl)-2-((5-(5-(difluoromethyl)-1,3,4-oxadiazole-2-yl)pyridine-2-yl)methyl)-4,4-dimethylisoquinoline-1,3(2H,4H)-dione], the IC50 on HDAC6 human recombinant is 0.069 µM; on HDAC1 it was over 10 µM.

`CC(C)(C)OC(=O)N1CCN(c2ccc3c(c2)C(=O)N(Cc2ccc(-c4nnc(C(F)F)o4)cn2)C(=O)C3(C)C)CC1` [Compound 116, tert-butyl 4-(2-((5-(5-(difluoromethyl)-1,3,4-oxadiazole-2-yl)pyridine-2-yl)methyl)-4,4-dimethyl-1,3-dioxo-1,2,3,4-tetrahydroisoquinoline-7-yl)piperazine-1-carboxylate]: the values for the IC50 on HDAC6 human recombinant and on HDAC1 were 0.2 µM and over 10 µM, respectively.

As to `Cn1c(=O)n(Cc2ccc(-c3nnc(C(F)F)o3)cn2)c(=O)c2cc(-c3ccccc3F)ccc21` [Compound 89, 3-((5-(5-(difluoromethyl)-1,3,4-oxadiazole-2-yl)pyridine-2-yl)methyl)-6-(2-fluorophenyl)-1-methylquinazoline-2,4(1H,3H)-dione], the IC50 on HDAC6 human recombinant is 0.054 µM; against HDAC1 it was over 10 µM.

With `COCCN1CCN(c2ccc3c(c2)C(C)(C)C(=O)N(Cc2ccc(-c4nnc(C(F)F)o4)cn2)C3=O)CC1` [Compound 35, 2-((5-(5-(difluoromethyl)-1,3,4-oxadiazole-2-yl)pyridine-2-yl)methyl)-6-(4-(2-methoxyethyl)piperazine-1-yl)-4,4-dimethylisoquinoline-1,3(2H,4H)-dione], the IC50 is 0.026 µM at HDAC6 human recombinant and over 10 µM at HDAC1.

For `CC1(C)C(=O)N(Cc2ccc(-c3nnc(C(F)F)o3)cn2)C(=O)c2ccc(N3CCOCC3)cc21` [Compound 24, 2-((5-(5-(difluoromethyl)-1,3,4-oxadiazole-2-yl)pyridine-2-yl)methyl)-4,4-dimethyl-6-morpholinoisoquinoline-1,3(2H,4H)-dione], the IC50 on HDAC6 human recombinant is 0.021 µM; at HDAC1, over 10 µM.

As for `CC1(C)C(=O)N(Cc2ccc(-c3nnc(C(F)F)o3)cn2)C(=O)c2ccc(N3CCN(c4ncccn4)CC3)cc21` [Compound 50, 2-((5-(5-(difluoromethyl)-1,3,4-oxadiazole-2-yl)pyridine-2-yl)methyl)-4,4-dimethyl-6-(4-(pyrimidine-2-yl)piperazine-1-yl)isoquinoline-1,3(2H,4H)-dione], the IC50 at HDAC6 human recombinant is 0.052 µM; at HDAC1 it was over 10 µM.

Regarding `CC1(C)C(=O)N(Cc2ccc(-c3nnc(C(F)F)o3)cn2)C(=O)c2ccc(-c3ccoc3)cc21` [Compound 102, 2-((5-(5-(difluoromethyl)-1,3,4-oxadiazole-2-yl)pyridine-2-yl)methyl)-6-(furan-3-yl)-4,4-dimethylisoquinoline-1,3(2H,4H)-dione], the IC50 at HDAC6 human recombinant is 0.03 µM; at HDAC1, over 10 µM.

Regarding `O=c1[nH]c2ccc(F)cc2c(=O)n1Cc1ccc(-c2nnc(C(F)F)o2)cn1` [Compound 67, 3-((5-(5-(difluoromethyl)-1,3,4-oxadiazole-2-yl)pyridine-2-yl)methyl)-6-fluoroquinazoline-2,4(1H,3H)-dione], the IC50 at HDAC6 human recombinant is 0.062 µM; against HDAC1, over 10 µM.

For `O=c1c2ccccc2n(Cc2ccc(-c3nnc(C(F)F)o3)cn2)c(=O)n1Cc1ccc(-c2nnc(C(F)F)o2)cn1` [Compound 78, 1,3-bis((5-(5-(difluoromethyl)-1,3,4-oxadiazole-2-yl)pyridine-2-yl)methyl)quinazoline-2,4(1H,3H)-dione], the figures for the IC50 on HDAC6 human recombinant and against HDAC1 were 0.04 µM and over 10 µM, respectively.
